Laboratory results from patent publication US6583274B1, “Crystalline forms of macrolide antibiotic” (Pfizer Inc., priority 1999, dated 2003).
Each block holds one compound with its values, some of them ahead of it.

Key:
[1] = hygroscopicity measurement (weight vs relative humidity on storage); assay type: physicochemical; conditions: for hygroscopicity: about 87% relative humidity, ambient temperature
Experimental: FIG. 3: Weight (Pct) - Relative humidity (Pct).
As used herein, the term “non-hygroscopic” when used to describe a composition of matter means that the composition of matter absorbs moisture at a rate of less than about 0.4% over 24 hours at 90% relative humidity.
A particular advantage conferred by this form is its lack of hygroscopicity.
(§1) From this and other data, it has been determined that crystalline anhydrous CP-472,295 is non-hygroscopic at about 87% relative humidity for about 72 hours at ambient temperature. This unexpected property allows the low-cost, efficient handling and storage of the drug, and the facile incorporation of accurate amounts of the drug into a variety of dosage forms.
as §1, with “Crystalline CP-472,295 monohydrate, like the crystalline anhydrous form described above, is advantageously non-hygroscopic. […] From” for “From”, “crystalline” for “crystalline anhydrous”, “CP-472,295 monohydrate” for “CP-472,295”, “7 days” for “72 hours”
By contrast, the pseudomorph formed when the monohydrate loses water is hygroscopic, and reabsorbs the water of hydration within about 4 hours when stored at about 87% relative humidity at ambient temperature.

[2] = water loss under routine handling conditions; assay type: physicochemical; conditions: routine handling conditions (e.g., 25° C. and 70% relative humidity)

Compound: CCCNC[C@]1(O)[C@H](C)O[C@@H](O[C@H]2[C@H](C)[C@@H](O[C@@H]3O[C@H](C)C[C@H](N(C)C)[C@H]3O)[C@@](C)(O)C[C@@H](C)CN[C@H](C)[C@@H](O)[C@](C)(O)[C@@H](CC)OC(=O)[C@@H]2C)C[C@@]1(C)OC [crystalline CP-472,295 monohydrate]
- hygroscopicity ([1]; about 7 days): non-hygroscopic (absorbs moisture at a rate of less than about 0.4% over 24 hours at 90% relative humidity)

- loss of water (stability of hydrate) [2]: readily loses water
Compound: CCCNC[C@]1(O)[C@H](C)O[C@@H](O[C@H]2[C@H](C)[C@@H](O[C@@H]3O[C@H](C)C[C@H](N(C)C)[C@H]3O)[C@@](C)(O)C[C@@H](C)CN[C@H](C)[C@@H](O)[C@](C)(O)[C@@H](CC)OC(=O)[C@@H]2C)C[C@@]1(C)OC [crystalline CP-472,295 sesquahydrate]

Compound: CCCNC[C@]1(O)[C@H](C)O[C@@H](O[C@H]2[C@H](C)[C@@H](O[C@@H]3O[C@H](C)C[C@H](N(C)C)[C@H]3O)[C@@](C)(O)C[C@@H](C)CN[C@H](C)[C@@H](O)[C@](C)(O)[C@@H](CC)OC(=O)[C@@H]2C)C[C@@]1(C)OC [crystalline anhydrous CP-472,295]
- hygroscopicity ([1]; about 72 hours): non-hygroscopic (absorbs moisture at a rate of less than about 0.4% over 24 hours at 90% relative humidity)

- hygroscopicity ([1]; pseudomorph formed when the monohydrate loses water): hygroscopic
- time to reabsorb the water of hydration ([1]; stored at about 87% relative humidity at ambient temperature): ≤ 4 h
Compound: CCCNC[C@]1(O)[C@H](C)O[C@@H](O[C@H]2[C@H](C)[C@@H](O[C@@H]3O[C@H](C)C[C@H](N(C)C)[C@H]3O)[C@@](C)(O)C[C@@H](C)CN[C@H](C)[C@@H](O)[C@](C)(O)[C@@H](CC)OC(=O)[C@@H]2C)C[C@@]1(C)OC [pseudomorph]
